# Laboratory results: ChEMBL document CHEMBL2163271, “Antitumor agents 295. E-ring hydroxylated antofine and cryptopleurine analogues as antiproliferative agents: design, synthesis, and mechanistic studies” (J Med Chem, 2012)
# pIC50: −log10 of the molar value.
# System: A549
# Assay: Cytotoxicity against human A549 cells assessed as cell viability after 48 hrs by SRB assay
# Format: functional, cell-based
# Conditions: A549, 48 h
row,Compound,pIC50
1,COc1ccc2c3c(c4cc(OC)c(OC)cc4c2c1)C[C@H]1COCCN1C3,7.40

# System: MRC5
# Assay: Cytotoxicity against human MRC5 cells assessed as cell viability after 48 hrs by SRB assay
# Format: functional, cell-based
# Conditions: MRC5, 48 h
row,Compound,pIC50
1,COc1ccc2c3c(c4cc(OC)c(OC)cc4c2c1)C[C@H]1COCCN1C3,6.60

# System: not listed separately
# Assay: Cytotoxicity against human KBVIN cells overexpressing P-gp after 2 hrs by methylene blue staining-based spectrophotometric analysis
# Format: functional, cell-based
# Conditions: not given
row,Compound,pIC50
1,COc1ccc2c3c(c4cc(OC)c(OC)cc4c2c1)C[C@H]1C[C@H](O)[C@@H](O)CN1C3,5.66
2,COc1ccc2c3c(c4cc(OC)c(OC)cc4c2c1)C[C@H]1[C@H](O)CCCN1C3,6.92

# System: A549
# Assay: Cytotoxicity against human A549 cells after 2 hrs by methylene blue staining-based spectrophotometric analysis
# Format: functional, cell-based
# Conditions: A549, 2 h
row,Compound,pIC50
1,COc1ccc2c3c(c4cc(OC)c(OC)cc4c2c1)C[C@H]1C[C@H](O)[C@@H](O)CN1C3,6.26
2,COc1ccc2c3c(c4cc(OC)c(OC)cc4c2c1)C[C@H]1[C@H](O)CCCN1C3,7.16

# System: KB
# Assay: Cytotoxicity against human KB cells after 2 hrs by methylene blue staining-based spectrophotometric analysis
# Format: functional, cell-based
# Conditions: not given
row,Compound,pIC50
1,COc1ccc2c3c(c4cc(OC)c(OC)cc4c2c1)C[C@H]1C[C@H](O)[C@@H](O)CN1C3,6.08
2,COc1ccc2c3c(c4cc(OC)c(OC)cc4c2c1)C[C@H]1[C@H](O)CCCN1C3,6.52

# System: DU-145
# Assay: Cytotoxicity against human DU145 cells after 2 hrs by methylene blue staining-based spectrophotometric analysis
# Format: functional, cell-based
# Conditions: DU-145, 2 h
row,Compound,pIC50
1,COc1ccc2c3c(c4cc(OC)c(OC)cc4c2c1)C[C@H]1C[C@H](O)[C@@H](O)CN1C3,6.22
2,COc1ccc2c3c(c4cc(OC)c(OC)cc4c2c1)C[C@H]1[C@H](O)CCCN1C3,6.70
